Measurements: ChEMBL document CHEMBL5291721, “A preclinical secondary pharmacology resource illuminates target-adverse drug reaction associations of marketed drugs” (Nat Commun, 2023)

Columns and labels:
[1] = molecular target: T1, Alpha-2A adrenergic receptor (Homo sapiens, UniProt P08913); format: functional, cell-based
T1 sequence (P08913 whole entry): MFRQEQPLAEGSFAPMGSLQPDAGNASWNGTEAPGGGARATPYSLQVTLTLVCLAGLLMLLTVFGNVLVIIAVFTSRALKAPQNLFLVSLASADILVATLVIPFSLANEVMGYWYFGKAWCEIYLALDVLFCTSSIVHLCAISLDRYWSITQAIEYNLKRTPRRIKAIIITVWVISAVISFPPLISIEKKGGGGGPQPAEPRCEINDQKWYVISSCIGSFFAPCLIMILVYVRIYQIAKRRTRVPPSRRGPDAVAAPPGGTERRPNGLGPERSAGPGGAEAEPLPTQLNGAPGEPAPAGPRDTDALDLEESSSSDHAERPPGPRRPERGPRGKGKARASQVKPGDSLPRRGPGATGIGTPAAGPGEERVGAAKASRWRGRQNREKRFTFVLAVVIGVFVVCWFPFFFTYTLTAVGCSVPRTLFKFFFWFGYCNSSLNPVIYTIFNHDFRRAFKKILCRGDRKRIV

[2] = molecular target: T2, Type-1 angiotensin II receptor (Homo sapiens, UniProt P30556)
T2 sequence (P30556 whole entry): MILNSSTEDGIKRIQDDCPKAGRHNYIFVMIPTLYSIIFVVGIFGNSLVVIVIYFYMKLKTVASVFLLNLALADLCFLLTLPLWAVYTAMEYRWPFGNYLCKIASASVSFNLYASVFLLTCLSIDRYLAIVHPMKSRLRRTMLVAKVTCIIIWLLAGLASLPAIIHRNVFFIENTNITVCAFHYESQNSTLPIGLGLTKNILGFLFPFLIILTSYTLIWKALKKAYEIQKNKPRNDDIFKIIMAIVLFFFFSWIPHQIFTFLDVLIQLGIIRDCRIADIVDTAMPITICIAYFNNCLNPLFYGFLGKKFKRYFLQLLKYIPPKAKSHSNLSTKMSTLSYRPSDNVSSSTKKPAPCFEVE

[3] = molecular target: T3, 5-hydroxytryptamine receptor 1A (Homo sapiens, UniProt P08908); format: functional, cell-based
T3 sequence (P08908 whole entry): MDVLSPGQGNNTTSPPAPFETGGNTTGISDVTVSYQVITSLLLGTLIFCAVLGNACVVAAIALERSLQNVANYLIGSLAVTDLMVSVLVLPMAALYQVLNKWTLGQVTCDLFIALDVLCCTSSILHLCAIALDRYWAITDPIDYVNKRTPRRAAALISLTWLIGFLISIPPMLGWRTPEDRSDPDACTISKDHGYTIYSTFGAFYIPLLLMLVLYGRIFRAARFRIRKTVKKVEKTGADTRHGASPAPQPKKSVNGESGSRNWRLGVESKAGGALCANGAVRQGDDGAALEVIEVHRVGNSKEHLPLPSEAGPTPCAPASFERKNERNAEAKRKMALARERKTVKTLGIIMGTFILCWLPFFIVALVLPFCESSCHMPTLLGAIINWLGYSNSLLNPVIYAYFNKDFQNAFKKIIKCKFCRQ

[4] = molecular target: T4, 5-hydroxytryptamine receptor 2C (Homo sapiens, UniProt P28335)
T4 sequence (P28335 whole entry): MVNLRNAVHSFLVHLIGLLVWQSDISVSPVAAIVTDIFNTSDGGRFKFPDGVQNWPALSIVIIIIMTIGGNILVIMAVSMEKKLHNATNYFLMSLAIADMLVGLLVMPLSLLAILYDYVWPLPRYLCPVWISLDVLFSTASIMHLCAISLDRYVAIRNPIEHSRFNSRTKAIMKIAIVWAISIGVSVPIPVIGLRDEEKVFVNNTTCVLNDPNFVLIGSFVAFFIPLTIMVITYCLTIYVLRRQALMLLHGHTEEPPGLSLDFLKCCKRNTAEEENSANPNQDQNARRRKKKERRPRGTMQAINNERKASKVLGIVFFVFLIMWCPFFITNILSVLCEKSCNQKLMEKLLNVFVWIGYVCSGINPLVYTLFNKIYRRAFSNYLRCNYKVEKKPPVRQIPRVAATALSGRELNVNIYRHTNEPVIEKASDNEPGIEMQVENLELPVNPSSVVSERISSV

[5] = molecular target: T5, 5-hydroxytryptamine receptor 3A (Homo sapiens, UniProt P46098); format: functional
T5 sequence (P46098 whole entry): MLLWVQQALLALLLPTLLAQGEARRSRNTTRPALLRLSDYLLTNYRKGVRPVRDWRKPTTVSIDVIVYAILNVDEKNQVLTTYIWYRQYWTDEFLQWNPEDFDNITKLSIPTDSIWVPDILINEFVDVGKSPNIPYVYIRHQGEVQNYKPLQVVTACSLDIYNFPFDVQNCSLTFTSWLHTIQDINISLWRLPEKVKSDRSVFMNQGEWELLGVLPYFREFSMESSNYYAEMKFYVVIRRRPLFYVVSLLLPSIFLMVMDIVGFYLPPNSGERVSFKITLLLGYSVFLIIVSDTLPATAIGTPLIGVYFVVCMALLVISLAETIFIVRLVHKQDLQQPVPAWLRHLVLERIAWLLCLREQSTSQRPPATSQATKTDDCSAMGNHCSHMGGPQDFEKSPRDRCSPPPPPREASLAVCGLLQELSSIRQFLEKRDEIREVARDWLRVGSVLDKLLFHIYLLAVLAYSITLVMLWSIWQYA

[6] = molecular target: Delta-type opioid receptor (Homo sapiens, UniProt P41143)
Chain of Delta-type opioid receptor (P41143 whole entry): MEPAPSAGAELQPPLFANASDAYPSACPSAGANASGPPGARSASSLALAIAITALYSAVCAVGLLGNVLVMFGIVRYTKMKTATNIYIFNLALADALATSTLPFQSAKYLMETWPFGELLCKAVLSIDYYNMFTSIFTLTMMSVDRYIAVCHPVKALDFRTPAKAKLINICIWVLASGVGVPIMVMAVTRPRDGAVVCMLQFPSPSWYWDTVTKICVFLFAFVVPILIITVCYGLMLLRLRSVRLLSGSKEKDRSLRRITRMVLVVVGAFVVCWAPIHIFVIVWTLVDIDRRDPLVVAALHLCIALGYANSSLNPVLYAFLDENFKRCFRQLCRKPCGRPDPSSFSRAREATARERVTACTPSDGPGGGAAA

[7] = molecular target: Voltage-dependent L-type calcium channel subunit alpha-1C (Rattus norvegicus, UniProt P22002); format: functional
Chain of Voltage-dependent L-type calcium channel subunit alpha-1C (P22002 whole entry): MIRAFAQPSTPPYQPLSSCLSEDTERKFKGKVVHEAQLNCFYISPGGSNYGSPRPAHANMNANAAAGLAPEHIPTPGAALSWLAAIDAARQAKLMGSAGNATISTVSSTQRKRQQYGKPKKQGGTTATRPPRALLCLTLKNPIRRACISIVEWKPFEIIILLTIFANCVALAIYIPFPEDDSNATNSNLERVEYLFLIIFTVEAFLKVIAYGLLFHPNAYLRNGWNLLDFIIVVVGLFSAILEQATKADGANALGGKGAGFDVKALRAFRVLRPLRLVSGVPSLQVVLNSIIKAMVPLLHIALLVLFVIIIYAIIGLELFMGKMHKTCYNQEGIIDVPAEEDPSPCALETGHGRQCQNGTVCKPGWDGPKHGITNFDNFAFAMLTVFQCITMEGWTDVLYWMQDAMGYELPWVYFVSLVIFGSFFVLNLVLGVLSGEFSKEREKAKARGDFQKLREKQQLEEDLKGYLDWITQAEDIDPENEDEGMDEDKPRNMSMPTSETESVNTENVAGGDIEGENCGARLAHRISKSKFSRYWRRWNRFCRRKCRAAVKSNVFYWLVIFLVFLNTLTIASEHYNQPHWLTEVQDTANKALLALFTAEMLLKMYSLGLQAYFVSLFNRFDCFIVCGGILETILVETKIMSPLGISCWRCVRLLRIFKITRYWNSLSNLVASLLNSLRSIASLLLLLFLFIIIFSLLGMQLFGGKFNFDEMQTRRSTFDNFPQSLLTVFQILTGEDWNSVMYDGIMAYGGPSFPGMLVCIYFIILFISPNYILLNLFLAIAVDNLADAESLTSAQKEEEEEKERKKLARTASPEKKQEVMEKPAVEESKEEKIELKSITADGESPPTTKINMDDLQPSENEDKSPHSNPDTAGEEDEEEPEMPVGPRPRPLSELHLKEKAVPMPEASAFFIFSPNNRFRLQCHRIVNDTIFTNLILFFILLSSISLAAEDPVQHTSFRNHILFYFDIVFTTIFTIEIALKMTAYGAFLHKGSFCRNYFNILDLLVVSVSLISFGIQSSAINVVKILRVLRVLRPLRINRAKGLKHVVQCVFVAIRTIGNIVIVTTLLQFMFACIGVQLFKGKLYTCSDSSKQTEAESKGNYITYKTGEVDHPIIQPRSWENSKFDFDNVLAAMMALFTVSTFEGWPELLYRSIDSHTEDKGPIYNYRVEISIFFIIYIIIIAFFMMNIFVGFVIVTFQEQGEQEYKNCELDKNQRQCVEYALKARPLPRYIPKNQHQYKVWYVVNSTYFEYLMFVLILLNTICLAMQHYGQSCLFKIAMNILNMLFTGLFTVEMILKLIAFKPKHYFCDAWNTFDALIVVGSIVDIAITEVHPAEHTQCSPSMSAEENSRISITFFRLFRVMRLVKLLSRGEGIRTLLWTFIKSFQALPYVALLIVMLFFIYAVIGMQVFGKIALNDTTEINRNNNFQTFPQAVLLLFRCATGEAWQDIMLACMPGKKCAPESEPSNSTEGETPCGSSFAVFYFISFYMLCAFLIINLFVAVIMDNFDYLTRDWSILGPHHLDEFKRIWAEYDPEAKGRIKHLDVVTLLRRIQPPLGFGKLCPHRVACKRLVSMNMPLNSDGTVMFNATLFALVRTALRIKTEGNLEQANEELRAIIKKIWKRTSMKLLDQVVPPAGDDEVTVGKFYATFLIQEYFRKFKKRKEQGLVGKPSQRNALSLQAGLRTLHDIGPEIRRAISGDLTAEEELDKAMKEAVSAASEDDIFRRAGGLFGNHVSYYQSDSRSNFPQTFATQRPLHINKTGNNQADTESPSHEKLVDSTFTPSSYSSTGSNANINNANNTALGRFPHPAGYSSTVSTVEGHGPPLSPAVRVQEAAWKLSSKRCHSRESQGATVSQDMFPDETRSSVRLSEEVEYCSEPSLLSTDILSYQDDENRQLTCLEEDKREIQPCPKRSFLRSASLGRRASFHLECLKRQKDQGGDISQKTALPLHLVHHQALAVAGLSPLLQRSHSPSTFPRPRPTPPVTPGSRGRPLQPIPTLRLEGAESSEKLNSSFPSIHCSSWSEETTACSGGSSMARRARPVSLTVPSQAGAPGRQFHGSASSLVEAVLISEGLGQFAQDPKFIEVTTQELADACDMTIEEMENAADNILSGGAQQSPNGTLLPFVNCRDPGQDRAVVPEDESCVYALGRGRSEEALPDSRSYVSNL
Also: assay procedure not described here.

## C[C@H]1C[C@@H]2[C@H]([C@@H](O)C[C@@]3(C)[C@H]2CC[C@]3(O)C(=O)COC(=O)CCC(=O)O)[C@@]2(C)C=CC(=O)C=C12 [METHYLPREDNISOLONE HEMISUCCINATE]
[1]
  AC50: > 30 µM
[2]
  AC50: > 30 µM
[3]
  AC50: > 30 µM
[4]
  AC50: > 30 µM
[5]
  AC50: > 30 µM
[6]
  AC50: > 30 µM

## O=C1NCCN1CCN1CCC(c2cn(-c3ccc(F)cc3)c3ccc(Cl)cc23)CC1 [SERTINDOLE]
[2]
  AC50: > 30 µM
[7]
  AC50: > 30 µM
[5]
  AC50: > 30 µM
[6]
  AC50: > 30 µM

## CCOC(=O)[C@H](CCc1ccccc1)N[C@H]1CCCN2CCC[C@@H](C(=O)O)N2C1=O [CILAZAPRIL]
[1]
  AC50: > 30 µM
[2]
  AC50: > 30 µM
[7]
  AC50: > 30 µM
[4]
  AC50: > 30 µM
[5]
  AC50: > 30 µM
[6]
  AC50: > 30 µM

## CN1CCN(C(=O)OC2c3nccnc3C(=O)N2c2ccc(Cl)cn2)CC1 (centres undefined) [ZOPICLONE]
[1]
  AC50: > 10 µM
[2]
  AC50: > 30 µM
[7]
  AC50: > 10 µM
[3]
  AC50: > 10 µM
[4]
  AC50: > 10 µM
[5]
  AC50: > 10 µM
[6]
  AC50: > 10 µM

## COc1ccc2c(c1)c(CC(=O)OCC(=O)O)c(C)n2C(=O)c1ccc(Cl)cc1 [ACEMETACIN]
[1]
  AC50: > 30 µM
[2]
  AC50: > 30 µM
[7]
  AC50: > 30 µM
[3]
  AC50: 25 µM
[4]
  AC50: > 30 µM
[5]
  AC50: > 30 µM
[6]
  AC50: > 30 µM

## C=C1CC[C@@]2(O)[C@H]3Cc4ccc(O)c5c4[C@@]2(CCN3CC2CC2)[C@H]1O5
[1]
  AC50: > 30 µM
[2]
  AC50: > 30 µM
[3]
  AC50: > 30 µM
[4]
  AC50: > 30 µM
[5]
  AC50: > 30 µM

## COc1c(N2CCNC(C)C2)c(F)cc2c(=O)c(C(=O)O)cn(C3CC3)c12 (centres undefined) [GATIFLOXACIN]
[1]
  AC50: > 10 µM
[2]
  AC50: > 10 µM
[7]
  AC50: > 10 µM
[3]
  AC50: > 10 µM
[4]
  AC50: > 30 µM
[5]
  AC50: > 30 µM
[6]
  AC50: > 30 µM

## CCCOc1ccc(C(=O)OCCN(CC)CC)cc1N [PROPARACAINE]
[1]
  AC50: > 30 µM
[2]
  AC50: > 30 µM
[4]
  AC50: > 30 µM
[5]
  AC50: > 30 µM
[6]
  AC50: > 30 µM

## CCCCC(C)(O)C/C=C/[C@H]1[C@H](O)CC(=O)[C@@H]1CCCCCCC(=O)OC (some centres undefined) [MISOPROSTOL]
[1]
  AC50: > 30 µM
[2]
  AC50: > 30 µM
[3]
  AC50: > 30 µM
[4]
  AC50: > 10 µM
[5]
  AC50: > 30 µM
[6]
  AC50: > 30 µM

## Cc1c(Cl)cccc1Nc1ccccc1C(=O)O [TOLFENAMIC ACID]
[1]
  AC50: > 30 µM
[2]
  AC50: > 30 µM
[7]
  AC50: > 30 µM
[3]
  AC50: 22 µM
[4]
  AC50: > 30 µM
[5]
  AC50: > 30 µM
[6]
  AC50: > 30 µM

## COC(=O)C1=C(C)NC(C)=C(C(=O)OC(C)C)C1c1cccc2nonc12 (centres undefined) [ISRADIPINE]
[1]
  AC50: > 10 µM
[2]
  AC50: > 10 µM
[7]
  AC50: 0.0045 µM
[3]
  AC50: > 10 µM
[4]
  AC50: > 30 µM
[5]
  AC50: > 30 µM
[6]
  AC50: 11 µM

## [H]/N=C(/N)c1ccc(NCc2nc3cc(C(=O)N(CCC(=O)O)c4ccccn4)ccc3n2C)cc1 [DABIGATRAN]
[1]
  AC50: > 30 µM
[2]
  AC50: > 30 µM
[4]
  AC50: > 30 µM
[5]
  AC50: > 30 µM
[6]
  AC50: > 30 µM

## Nc1ncnc2c1ncn2[C@@H]1O[C@H](COP(=O)(O)O)[C@@H](O)[C@H]1O [ADENOSINE PHOSPHATE]
[1]
  AC50: > 30 µM
[2]
  AC50: > 30 µM
[4]
  AC50: > 30 µM
[5]
  AC50: > 30 µM
[6]
  AC50: > 30 µM

## CN1C(=O)CC(c2ccccc2)C1=O (centres undefined) [PHENSUXIMIDE]
[1]
  AC50: > 10 µM
[2]
  AC50: > 10 µM
[7]
  AC50: > 10 µM
[4]
  AC50: > 30 µM
[5]
  AC50: > 30 µM
[6]
  AC50: > 30 µM

## O=C(O)CCCc1ccccc1 [PHENYLBUTANOIC ACID]
[1]
  AC50: > 30 µM
[2]
  AC50: > 10 µM
[7]
  AC50: > 30 µM
[3]
  AC50: > 10 µM
[4]
  AC50: > 30 µM
[5]
  AC50: > 30 µM
[6]
  AC50: > 30 µM

## CCN(CC)CCOC(=O)c1ccc(N)cc1 [PROCAINE]
[1]
  AC50: > 10 µM
[2]
  AC50: > 30 µM
[7]
  AC50: > 10 µM
[4]
  AC50: > 30 µM
[5]
  AC50: 22 µM
[6]
  AC50: > 30 µM

## CCN1CCC[C@H]1CNC(=O)c1cc(S(N)(=O)=O)ccc1OC [LEVOSULPIRIDE]
[1]
  AC50: > 10 µM
[2]
  AC50: > 30 µM
[7]
  AC50: > 10 µM
[4]
  AC50: > 30 µM
[5]
  AC50: > 30 µM
[6]
  AC50: > 30 µM

## CCCCN1CCCCC1C(=O)Nc1c(C)cccc1C (centres undefined) [BUPIVACAINE]
[1]
  AC50: > 30 µM
[2]
  AC50: > 30 µM
[7]
  AC50: > 30 µM
[3]
  AC50: > 30 µM
[4]
  AC50: > 30 µM
[5]
  AC50: > 30 µM
[6]
  AC50: > 30 µM

## CCCCOc1cc(C(=O)NCCN(CC)CC)c2ccccc2n1 [DIBUCAINE]
[1]
  AC50: > 10 µM
[2]
  AC50: > 10 µM
[7]
  AC50: > 10 µM
[3]
  AC50: > 10 µM
[4]
  AC50: > 30 µM
[5]
  AC50: > 30 µM
[6]
  AC50: > 30 µM

## CC/C=C\C/C=C\C/C=C\CCCCCCCC(=O)O [LINOLENIC ACID]
[1]
  AC50: > 30 µM
[2]
  AC50: > 30 µM
[4]
  AC50: > 30 µM
[5]
  AC50: > 30 µM
[6]
  AC50: > 30 µM

## CCCC(CCC)C(=O)O[C@H]1C[C@H]2CC[C@@H](C1)[N+]2(C)C [ANISOTROPINE]
[1]
  AC50: > 30 µM
[2]
  AC50: > 30 µM
[4]
  AC50: > 30 µM
[5]
  AC50: 28 µM
[6]
  AC50: > 30 µM

## CC(C)c1c(C(=O)Nc2ccccc2)c(-c2ccccc2)c(-c2ccc(F)cc2)n1CC[C@@H](O)C[C@@H](O)CC(=O)O [ATORVASTATIN]
[1]
  AC50: > 10 µM
[2]
  AC50: > 30 µM
[7]
  AC50: > 10 µM
[3]
  AC50: > 10 µM
[4]
  AC50: > 30 µM
[5]
  AC50: > 30 µM
[6]
  AC50: > 30 µM

## Cc1nc2ccc(CN(C)c3ccc(C(=O)N[C@@H](CCC(=O)O)C(=O)O)s3)cc2c(=O)[nH]1 [RALTITREXED]
[1]
  AC50: > 30 µM
[2]
  AC50: > 30 µM
[7]
  AC50: > 30 µM
[4]
  AC50: > 30 µM
[5]
  AC50: > 30 µM
[6]
  AC50: > 30 µM
